Columns and labels:
[1] = test system: Amblyomma hebraeum; experiment: Tick control by subcutaneous administration of the active ingredient to the host animal (chicks); format: in vivo; details: subcutaneously injected dose of 3 mg/kg of body weight, treated vs untreated chicks; for % reduction nymphs: nymphs moulted from collected larvae; for % reduction larvae: replete larvae
Method: Tick control by subcutaneous administration of the active ingredient to the host animal
13 day-old chicks of a fattened breed are infected with about 200 larvae of the tick species Amblyomma hebraeum and placed in pairs in cages. After three days, the chicks are injected subcutaneously with the active ingredient in an aqueous suspension. Within 2 to 6 days of the treatment, i.e. 5 to 9 days after infection, the replete tick larvae fall from the chicks can be collected and counted. The activity of the test compounds is calculated on the basis of the number of replete larvae on treated and untreated chicks in accordance with the formula [formula]
where Ct is the average number of larvae from treated chicks and Cu is the average number of larvae from untreated chicks.
In order to determine this type of activity, the replete larvae are kept, separated into treatment groups, in an incubator until all the larvae collected from untreated chicks have moulted. The activity is calculated using the above mentioned formula, with the average number of nymphs being used instead of the average number of larvae.
Reduction of more than + 80 % can be regarded as systemic action.

[2] = test system: cat fleas [Ctenocephalides felis]; experiment: Flea control by oral administration of the active ingredient to the host animal (cats); format: in vivo; details: cats infected with 100 cat fleas, treated orally on day 0 with 50 mg/kg of body weight (capsule); after 45 days
Method: Flea control by oral administration of the active ingredient to the host animal 20 cats with the proven ability permanently to maintain a flea population are divided into 6 groups: 5 groups each being composed of 3 or 4 animals and a sixth group, which serves as the control group, being composed of 2 animals. Each of the cats is infected with 100 cat fleas [Ctenocephalides felis]. The cats of the 5 groups are treated orally on day 0 with 50 mg of active ingredient per kg of body weight. The active ingredient is administered in the form of a capsule. The control group remains untreated. […] The eggs are counted and placed on a medium suitable for the growth of larvae and incubated. The number of pupae and fully grown fleas that develop is determined.

SMILES | % reduction nymphs [1] | % reduction larvae [1] | inhibition of the development of fleas [2]
c1ccc(Oc2ccc(OCC3COC(C4CC4)O3)cc2)cc1 (stereo not shown) [compound 2, 2-cyclopropyl-4-[4-(phenoxy)-phenoxymethyl]-1,3-dioxolane] | 83% | 82% | 
CC1(C)OCC(COc2ccc(Oc3cc(F)cc(F)c3)cc2)O1 (stereo not shown) [2-dimethyl-4-[4-(3,5-difluorophenoxy)-phenoxymethyl]-1,3-dioxolane] |  |  | 100%
CCC1OCC(C)(COc2ccc(Oc3cccc(F)c3)cc2)O1 (stereo not shown) [compound 1, 2-ethyl-4-[4-(3-fluorophenoxy)-phenoxymethyl]-4-methyl-1,3-dioxolane] | 83% | 83% | 
CC(C)C1OCC(COc2ccc(Oc3cc(F)cc(F)c3)cc2)O1 (stereo not shown) [4-[4-(3,5-difluorophenoxy)-phenoxymethyl]-2-isopropyl-1,3-dioxolane] |  |  | 100%
CC1(C)OCC(COc2ccc(Oc3cccc(F)c3)cc2)O1 (stereo not shown) [2-dimethyl-4-[4-(3-fluorophenoxy)-phenoxymethyl]-1,3-dioxolane] |  |  | 100%
CCC1OCC(COc2ccc(Oc3cccc(F)c3)cc2)O1 (stereo not shown) [compound 3, 2-ethyl-4-[4-(3-fluorophenoxy)-phenoxymethyl]-1,3-dioxolane] | 80% | 78% | 100%

— patent publication US20020040027A1, “Method for the prevention of the reinfestation of warm-blooded animals by ectoparasites” (priority 1996, published 2002)
